The record followed here is patent US7632957B2, “Esterification reaction products and cosmetic products” (The Nisshin Oillio Group, Ltd., priority 2005, dated 2009).

Format in all cases: physicochemical
Data set [1] in a line: Water-holding property test 1 (water taken up by sample/Vaseline mixture at 40° C.). The following applies: sample 1 g + Vaseline 9 g, mass of water to mass of mixture, higher is better. The method, then: (1) Water-Holding Property Test 1
The water-holding property test of esterification reaction products is conducted with reference to the lanolin water retention value test in British Pharmacopoeia (BP) as follows:
A measurement sample (1 g) and Vaseline (9 g) are mixed and vigorously stirred (200 to 300 rpm) in a thermostat chamber at 40° C. while dropwise adding purified water thereto. The point when water is no longer being received is determined as the end-point and is expressed as a percentage of mass of water to mass of the mixture. A higher value means better water-holding properties of the sample.

A short description of data set [2]: Water-retaining property test (mass loss after 24 hours at 40° C.). To be noted: reduced mass after 24 hours at 40° C., lid off; lower is better. The method, then:
(3) Water-Retaining Property Test
A measurement sample (1 g) and Vaseline (9 g) are mixed and vigorously stirred (500 rpm, 3 minutes) in a thermostat chamber at 40° C. while dropwise adding 10 g of purified water thereto (the ratio of purified water to the mixture of sample and Vaseline was 1:1). When the sample become smooth, 10 g of the sample is uniformly applied onto a Petri dish so as to have a thickness of 0.5 to 1.5 mm and then put in a thermostat chamber at 40° C. with the lid off. After 24 hours, the sample is taken out from the chamber. The mass after the still standing is measured, and the reduced mass after the standing is calculated and is expressed as a percentage to the mass of the applied sample. A lower value means better water-retaining properties of the sample.

Data set [3] in a line: Dispersibility test (titanium oxide, octyl palmitate; wetting point and fluid point). To be noted: sample 4 g + titanium oxide 20 g, octyl palmitate added; for (4) Dispersibility Wetting point: lower is better. The method, then:
A sample (4 g) and titanium oxide (20 g) are mixed, and then octyl palmitate (manufactured by The Nisshin OilliO Group, Ltd. under the trade name Salacos P-8) is gradually added thereto. The point when the mixture become uniform as a whole is determined as the wetting point, and the point when the mixture starts to flow by tilting the whole mixture is determined as the fluid point. The amounts of octyl palmitate added until to reach the respective points are measured and used as the wetting point value and the fluid point value.
A lower wetting point value or a smaller difference between the wetting point value and the fluid point value means higher pigment-dispersing properties of the sample.

Data set [4] can be described thus: Water-holding property test 2 (differential scanning calorimetry of sample:water 7:3). To be noted: sample:water 7:3, DSC 2° C./min from −15° C. to 45° C.; no peak = good water-holding. As for the experimental part: (2) Water-Holding Property Test 2
A measurement sample and water are mixed at a mass ratio of 7:3 and are vigorously stirred (500 rpm, 3 minutes) in a thermostatic chamber at 70° C. to obtain a water-holding substance. The obtained water-holding substance is analyzed with a differential scanning calorimeter (device name “DSC 6200”, manufactured by Seiko Instruments Inc.). That is, the temperature of the water-holding substance is raised at a rate of 2° C./min in the range from −15° C. to 45° C. to obtain a differential scanning calorimetry curve, and the curve is confirmed whether an endothermic peak due to water at around 0° C. is present or not. When this endothermic peak is not observed, the water-holding properties are judged to be good.
(In DSC, transitions show as peaks or steps in heat flow.)

Data set [5] in a line: Solubility of 4-tert-butyl-4′-methoxydibenzoylmethane when mixed with esterification reaction product. The following applies: mixed with esterification reaction product (Production Example 1).
Data set [6] is described as follows: Water resistant ability (waterproof-film-forming ability), contact angle before and after washing. To be noted: film on glass plate, before and after washing with flowing tap water 25 mL/s, 1 minute; smaller is better. The method, then:
(6) Water Resistant Ability (Waterproof-Film-Forming Ability)
A sample is dissolved in chloroform to prepare a sample solution containing 10% by mass of the sample. The prepared sample solution is applied onto a washed glass plate. Then, the solvent is removed to form a film, and one drop of distilled water is dropped onto the formed film. The contact angle between the film surface and the water droplet is measured. After the measurement, the film is washed with flowing tap water (25 mL/s, 1 minute). The water resistant ability is evaluated by comparing the contact angles before and after the washing. A smaller difference in the contact angle before and after the washing means better water resistant ability.

With `CCCCCCC(O)CCCCCCCCCCC(=O)O[C@H]1CC[C@@]2(C)C(=CC[C@H]3[C@@H]4CC[C@H]([C@H](C)CCCC(C)C)[C@@]4(C)CC[C@@H]32)C1` (stereo partly shown) [Cholesteryl hydroxystearate, cholesteryl hydroxystearate], the “(1) Water-holding properties” value in data set [1] is 320 % by mass. The “(3) Water-retaining properties” value in data set [2] worked out at 1.9 % by mass. In addition, in data set [3], the “(4) Dispersibility Fluid point” value is 9 % by mass and the “(4) Dispersibility Wetting point” value is 2 % by mass. The “endothermic peak due to water at around 0° C.” value in data set [4] is “detected”.

Take `COc1ccc(C(=O)CC(=O)c2ccc(C(C)(C)C)cc2)cc1` [4-tert-butyl-4′-methoxydibenzoylmethane]: the “solubility of 4-tert-butyl-4′-methoxydibenzoylmethane” value in data set [5] is reported as “improved”.

For `CC(C)CCCCCCCCCCCCCCCOC(=O)CC(O)C(=O)OCCCCCCCCCCCCCCCC(C)C` (stereo not shown) [Diisostearyl malate, diisostearyl malate], the “Water resistant ability (difference in contact angle (°))” value in data set [6] was 47.4 °. Besides, the “(1) Water-holding properties” value in data set [1] is on record as 200 % by mass. Further, in data set [2], the “(3) Water-retaining properties” value worked out at 3.0 % by mass. In data set [3], the “(4) Dispersibility Fluid point” value was found to be 22 % by mass and the “(4) Dispersibility Wetting point” value stood at 3 % by mass. For the same molecule, the “endothermic peak due to water at around 0° C.” value in data set [4] was “detected”.

polyglyceryl triisostearate: the “Water resistant ability (difference in contact angle (°))” value in data set [6] is on record as 21.0 °.
